Experimental data: patent US20200405739A1, “MTOR INHIBITOR, PHARMACEUTICAL COMPOSITION AND USE THEREOF” (SHENYANG FUYANG PHARMACEUTICAL TECHNOLOGY CO., LTD., priority 2018, published 2020)

How the values were obtained:
[1] = tested on: non-small cell lung cancer cells A549; assay: in vivo tumor growth inhibition
[2] = tested on: PI3K/Akt/mTOR signaling pathway protein; assay: Western blot of PI3K/Akt/mTOR pathway proteins in A549 cells (Test Example 2); type: cell-based, human; settings: 24 h; for activation of PI3K protein, 4EBP1 protein, mTOR protein / expression of Akt protein and S6K1 protein and of their activated proteins: Western blot
Procedure: A549 cells were purchased from American Type Culture Collection (ATCC, Manassas, Va., USA). The cells were cultured in a DMEM medium containing 10% fetal bovine serum, 2% glutamine and penicillin (100 U/ml) in an incubator at 37° C. with 5% CO2. The cells used in the experiment were all cells in logarithmic phase.
A549 was an adherent cell, cells in logarithmic growth phase was selected as the experimental group.
1) 60-100 μl of lysate was added to each tube of cells, and was subjected to ice bath in a refrigerator at 4° C. for 1 h; the solution was centrifuged for 10-15 min at 12,000 r/min, the supernatant was suck out to a 0.5 ml EP tube; after the quantitative protein was measured with Bio-Rad, 5× loading buffers were added, and the solution was subjected to boiling water bath for 3-5 min and then was cryopreserved at −80° C.
2) 15%, 12% or 10% acrylamide separation gel was prepared according to Tab. 2-1, and was then mixed with various ingredients successively; once TEMED and AP were added, the mixture was quickly rotated and poured between the two glass plates of the electrophoresis tank, leaving the space required for pouring the stacking gel.
The separation gel was covered with a layer of isopropyl alcohol, and the gel was placed vertically at room temperature for about 30 min.
3) After the separation gel was completely polymerized, the isopropyl alcohol was removed, and the gel was washed with deionized water for 10 times; water was absorbed with filter paper, a stacking gel was prepared according to Tab.2-2, and a clean sample comb was immediately inserted after adding the stacking gel into electrophoresis tank.
4) After the stacking gel was completely polymerized, the electrophoresis instrument was filled with 1×electrophoretic buffer solution, samples were added into sample holes according to a predetermined sequence to start electrophoresis, the voltage was 50-60V when the samples were located at the stacking gel, and the voltage was adjusted to 100-140V when the samples swam to the separation gel.
1) After the SDS polyacrylamide gel electrophoresis was completed, the gel was placed in the transfer buffer and soaked for 30 min. 8 pieces of Whatman 3 MM filter paper and 1 piece of nitrocellulose membrane were cut out, which were consistent with the size of the gel. The nitrocellulose membrane was immersed in methanol for 1 min, and the nitrocellulose membrane was immersed in deionized water to remove air bubbles.
2) The gel was stacked into a “sandwich” shape and inserted into the transfer cell. The gel was connected to the cathode on one side, 100 mA for 3 h.
3) The transferred nitrocellulose membrane entered the Ponceau S staining solution for 5-10 min, and was shaken gently during the period. After the protein band appeared, it was rinsed with deionized water several times, and the position of the standard protein molecular weight was marked with waterproof ink.
4) The membrane was placed in a petri dish with a blocking solution and blocked for 2 h.
5) The blocking solution containing a first antibody was added at 0.1 ml/cm^2 and stayed overnight at 4° C. (dilution multiples of various antibodies are as shown in Tab 0.2-2)
6) The first antibody was recovered, the membrane was rinsed with PBST 3 times for 10 min each time, and was then transferred to a solution containing 150 mM NaCl and 50 mM Tris-HCl (pH 7.5) and shaken for 10 min.
7) A phosphate-free and sodium azide-free blocking solution containing a second antibody was added at 0.1 ml/cm2, wherein the second antibody labeled with horseradish peroxidase was diluted 1,000 times.
8) It was rinsed with 150 mM NaCl and 50 mmol/L Tris-HCl (pH 7.5) solution for 3 times for 10 min each time. Color development was carried out in a dark room with an ECL kit, and pictures were scanned and saved. […]

[3] = tested on: mouse liver cancer cells H22; assay: in vivo tumor growth inhibition
[4] = human body; cited from earlier work

| Compound | inhibition of tumor growth in vivo [1] | activation of PI3K protein, 4EBP1 protein, mTOR protein [2] | expression of Akt protein and S6K1 protein and of their activated proteins [2] | inhibitory effects on AKT, S6K1 and 4EBP1 compared with rapamycin ([2]; rapamycin 20 μg/ml as control drug) | inhibition of tumor growth in vivo [3] | absolute oral bioavailability [4] |
| --- | --- | --- | --- | --- | --- | --- |
| CO[C@@H]1[C@@H](O[C@@H]2O[C@H](C)[C@@H](O[C@H]3C[C@@](C)(O)[C@@H](OC(=O)CC(C)C)[C@H](C)O3)[C@H](N(C)C)[C@H]2O)[C@@H](CC=O)C[C@@H](C)[C@@H](O[C@H]2CC[C@H](N(C)C)[C@@H](C)O2)/C=C/C=C/C[C@@H](C)OC(=O)C[C@H]1O [isovalerylspiramycin I] | obvious inhibiting effects | inhibit the protein activation of the PI3K/AKT/mTOR signaling pathway | inhibit expression of Akt protein and S6K1 protein and expression of their activated proteins | more excellent inhibitory effects on AKT, S6K1 and 4EBP1 | obvious inhibiting effects | – |
| CCC(=O)O[C@@H]1CC(=O)O[C@H](C)C/C=C/C=C/[C@H](O[C@H]2CC[C@H](N(C)C)[C@@H](C)O2)[C@H](C)C[C@H](CC=O)[C@H](O[C@@H]2O[C@H](C)[C@@H](O[C@H]3C[C@@](C)(O)[C@@H](OC(=O)CC(C)C)[C@H](C)O3)[C@H](N(C)C)[C@H]2O)[C@H]1OC [isovalerylspiramycin III] | – | inhibit the activation of PI3K protein, 4EBP1 protein and mTOR protein | inhibit the expression of AKT protein and S6K1 protein and the expression of their activated proteins | – | – | – |
| isovalerylspiramycin II | – | inhibit the activation of PI3K protein, 4EBP1 protein and mTOR protein | inhibit the expression of AKT protein and S6K1 protein and the expression of their activated proteins | – | – | – |
| spiramycin | – | – | – | – | – | 30-40% |
